According to patent EP2072621A1, “Solvent tolerant microorganisms” (DSM IP Assets B.V., priority 2007, dated 2009):
Read-outs that look alike come from different tables or passages of the source.

Tests used:
[1] = tested on: Lactobacilli; conditions: butanol concentration of 2.5 w/v%
Protocol: (§1) MRS medium oxoid (CM0359, Merck KgaA, Germany) was prepared according to manufacturer's instructions and filled out in 50 ml Schott flasks and sterilized at 121 degrees C during 15 minutes. 1 vial of thawed frozen culture was inoculated to 50 ml of this medium and the cultures were subsequently incubated overnight at 30 degrees C standing still or during 2 nights if no clear growth (whitening) had occurred yet. 20 microliter of this culture was inoculated to 180 microliter of microtiter plate (MTP) medium. The pH of this medium was approximately 6.0.
(§2) After inoculation, every 20 minutes the optical density at 620 nm was measured in the wells of the microtiter plate using a Multiscan Ascent photometer (Thermo Fisher Scientific, Inc.), while the temperature was controlled at 30 degrees C. Total time of measurement was maximally 24 hours. Before measurements were taken, the microtiter plates were shaken for 30 seconds to homogenize any settled biomass.
(§3) The growth rate was calculated using the exponential phase of the growth curve, based on the optical density measurement. The relative growth rate was calculated using the reference at 0 g/L as 1.00. […] Table 3 Relative growth rate
(§4) IC50(%) values were determined for the Lactobacilli at 30 degrees C by using a polynomial second order fit through the relative growth rate data and are presented in Table 4. […]

[2] = tested on: L. fructivorans ATCC 8288; conditions: 30 degrees C; for Relative growth rate: reference at 0 g/L = 1.00
Protocol: as §1, §2, §3, §4

[3] = tested on: L. casei from commercial rennet; conditions: 30 degrees C; for Relative growth rate: reference at 0 g/L = 1.00
Protocol: as §1, §2, §3, §4

[4] = tested on: L. plantarum ATCC 8014; conditions: 30 degrees C; for Relative growth rate: reference at 0 g/L = 1.00
Protocol: as §1, §2, §3, §4

[5] = tested on: L. casei ADRIA 85 L121; conditions: 30 degrees C; for Relative growth rate: reference at 0 g/L = 1.00
Protocol: as §1, §2, §3, §4

[6] = polynomial second order fit through the relative growth rate data

In the case of butanol, the “growth in presence of butanol” value [1] is reported as “can still grow”, the IC50% [2, 6] is reported as 2.1 w/v % and the Relative growth rate ([2]; Butanol concentration 0.5 w/v%) is reported as 0.94. It also gave a Relative growth rate ([2]; Butanol concentration 1 w/v%) of 0.89, a Relative growth rate ([2]; Butanol concentration 1.5 w/v%) of 0.78 and a Relative growth rate ([2]; Butanol concentration 2.5 w/v%) of 0.28. For the same substance, the IC50% [3, 6] was 1.9 w/v %, the Relative growth rate ([3]; Butanol concentration 0.5 w/v%) was 0.88 and the Relative growth rate ([3]; Butanol concentration 1 w/v%) was 0.79. The Relative growth rate ([3]; Butanol concentration 1.5 w/v%) was 0.68, the Relative growth rate ([3]; Butanol concentration 2.5 w/v%) was 0.24 and the IC50% [4, 6] was 2.2 w/v %. For the same substance, the Relative growth rate ([4]; Butanol concentration 0.5 w/v%) was 0.97, the Relative growth rate ([4]; Butanol concentration 1 w/v%) was 0.90 and the Relative growth rate ([4]; Butanol concentration 1.5 w/v%) was 0.77. The Relative growth rate ([4]; Butanol concentration 2.5 w/v%) was 0.37, the IC50% [5, 6] was 2.0 w/v % and the Relative growth rate ([5]; Butanol concentration 0.5 w/v%) was 0.96. For the same substance, the Relative growth rate ([5]; Butanol concentration 1 w/v%) was 0.89, the Relative growth rate ([5]; Butanol concentration 1.5 w/v%) was 0.73 and the Relative growth rate ([5]; Butanol concentration 2.5 w/v%) was 0.21.
